Entries after “also recorded” stand apart in the source; their conditions may differ.
How the values were obtained:
LNCaP tumor = test: Tumor-bearing mice biodistribution after PET; type: in vivo, NRG mice; conditions: 24 h p.i.
Description: Balb/c mice (n = 30) were injected with a bolus of ^64Cu-DOTHA2-PSMA by the tail vein (in 0.3 mL of saline: 3 MBq for 1 h, 2 h, and 4 h p.i., 7.5 MBq for 24 h p.i. and 21 MBq for 48 h p.i.). Injected activity had to be increased for later time points to ensure reliable detection and reliability in organs with a low uptake, e.g., the brain. At all timepoints, blood was collected using a heparin-coated syringe by femoral vein puncture and mice were then euthanized and dissected. Harvested tissues were rinsed, blotted dry, and then weighted and counted in gamma counter. The results are reported as the %IA per gram of tissue. The biodistribution results were compared with the ^68Ga-PSMA-617 results obtained by our team at 1 h and 2 h p.i.
PET imaging of NRG mice and supplemental tumor-bearing mice were biodistributed 24 h p.i. as described for balb/c mice.

[1] = In vivo stability (blood, urine, liver) after injection; set-up: species or system balb/c mice
Description: For metabolite analysis, three balb/c mice were injected with a bolus of 32 MBq of ^64Cu-DOTHA2-PSMA in 0.3 mL saline by tail vein (real IA: 26.4–39.0 MBq). Blood was collected at 1 h p.i. (0.01–0.1 mL) in heparin-coated tubes and then centrifuged at 10,000 rpm for 10 min. Subsequently, the pellet and supernatant were separated, and the relative activity was determined. Radio-TLC was performed to assess the stability of the radiolabeled compound in the blood and in plasma. Two balb/c mice were injected with 45 MBq (real IA: 44.7–45.5 MBq). Urine was collected at 1 h p.i. and analyzed by UPLC. Two balb/c mice were injected with 59 MBq and then euthanized and dissected at 2 h p.i. to harvest the liver (real IA: 58.9–59.3 MBq). The livers were promptly washed and put on ice. They were homogenized with an ice-cold piston with 1 mL of water, extracted, centrifuged (14,000 rpm; 3 min), and mixed with 1 mL of acetonitrile before 4 further cycles of centrifugation and the collection of supernatants. All the pellets were mixed with 1 mL of 10% TFA and centrifuged, and the final supernatant was analyzed by Radio-TLC. The activity was measured in all the supernatants.

[2] = Blocked (n=4), co-injection of natCu-DOTHA2-PSMA
[3] = in mice, 1 h p.i., after 10% TFA

**Q.** Which Adrenals uptake (LNCaP tumor; [2]) does the source give for CN([O-])C(=O)CN1CCN(CC(=O)NCC2CCC(C(=O)NC(Cc3ccc4ccccc4c3)C(=O)NCCCCC(NC(=O)NC(CCC(=O)O)C(=O)O)C(=O)O)CC2)CCN(CC(=O)N(C)[O-])CCN(CC(=O)N(C)O)CC1.[64Cu+2] (centres unmarked) [^64Cu-DOTHA2-PSMA] here?
**A.** 9.02 %IA/g

**Q.** What about the Blood uptake (LNCaP tumor; [2]) of the same compound?
**A.** 1.91 %IA/g

**Q.** And the Bone uptake (LNCaP tumor; [2])?
**A.** 0.91 %IA/g

**Q.** What about the Brain uptake (LNCaP tumor; [2]) of the same compound?
**A.** 0.38 %IA/g

**Q.** And the Fat uptake (LNCaP tumor; [2])?
**A.** 0.26 %IA/g

**Q.** And the Heart uptake (LNCaP tumor; [2])?
**A.** 3.00 %IA/g

**Q.** And the Intestin uptake (LNCaP tumor; [2])?
**A.** 8.53 %IA/g

**Q.** And the Kidneys uptake (LNCaP tumor; [2])?
**A.** 6.86 %IA/g

**Q.** And the LNCaP tumor uptake (LNCaP tumor; [2])?
**A.** 7.44 %IA/g

**Q.** What about the Lungs uptake (LNCaP tumor; [2]) of the same compound?
**A.** 5.99 %IA/g

**Q.** And the Muscles uptake (LNCaP tumor; [2])?
**A.** 0.47 %IA/g

**Q.** And the Pancreas uptake (LNCaP tumor; [2])?
**A.** 2.09 %IA/g

**Q.** What about the Plasma uptake (LNCaP tumor; [2]) of the same compound?
**A.** 2.54 %IA/g

**Q.** What about the Salivary gl. uptake (LNCaP tumor; [2]) of the same compound?
**A.** 1.84 %IA/g

**Q.** What about the Seminal gl. uptake (LNCaP tumor; [2]) of the same compound?
**A.** 0.59 %IA/g

**Q.** And the Skin uptake (LNCaP tumor; [2])?
**A.** 0.50 %IA/g

**Q.** And the Spleen uptake (LNCaP tumor; [2])?
**A.** 6.99 %IA/g

**Q.** And the Stomach uptake (LNCaP tumor; [2])?
**A.** 5.55 %IA/g

**Q.** What about the Tail uptake (LNCaP tumor; [2]) of the same compound?
**A.** 1.36 %IA/g

**Q.** What about the Testis uptake (LNCaP tumor; [2]) of the same compound?
**A.** 1.03 %IA/g

**Q.** And the Thyroid uptake (LNCaP tumor; [2])?
**A.** 1.33 %IA/g

**Q.** What about the liver uptake (LNCaP tumor; [2]) of the same compound?
**A.** 15.15 %IA/g

**Q.** And the Adrenals uptake (LNCaP tumor; Non-blocked (n=11))?
**A.** 4.70 %IA/g

**Q.** What about the Blood uptake (LNCaP tumor; Non-blocked (n=11)) of the same compound?
**A.** 3.46 %IA/g

**Q.** And the Bone uptake (LNCaP tumor; Non-blocked (n=11))?
**A.** 2.38 %IA/g

**Q.** And the Brain uptake (LNCaP tumor; Non-blocked (n=11))?
**A.** 0.75 %IA/g

**Q.** What about the Fat uptake (LNCaP tumor; Non-blocked (n=11)) of the same compound?
**A.** 0.63 %IA/g

**Q.** And the Heart uptake (LNCaP tumor; Non-blocked (n=11))?
**A.** 5.20 %IA/g

**Q.** What about the Intestin uptake (LNCaP tumor; Non-blocked (n=11)) of the same compound?
**A.** 15.69 %IA/g

**Q.** What about the Kidneys uptake (LNCaP tumor; Non-blocked (n=11)) of the same compound?
**A.** 13.24 %IA/g

**Q.** And the LNCaP tumor uptake (LNCaP tumor; Non-blocked (n=11))?
**A.** 17.33 %IA/g

**Q.** And the Lungs uptake (LNCaP tumor; Non-blocked (n=11))?
**A.** 14.30 %IA/g

**Q.** And the Muscles uptake (LNCaP tumor; Non-blocked (n=11))?
**A.** 1.10 %IA/g

**Q.** What about the Pancreas uptake (LNCaP tumor; Non-blocked (n=11)) of the same compound?
**A.** 2.80 %IA/g

**Q.** And the Plasma uptake (LNCaP tumor; Non-blocked (n=11))?
**A.** 4.52 %IA/g

**Q.** And the Salivary gl. uptake (LNCaP tumor; Non-blocked (n=11))?
**A.** 4.18 %IA/g

**Q.** What about the Seminal gl. uptake (LNCaP tumor; Non-blocked (n=11)) of the same compound?
**A.** 1.13 %IA/g

**Q.** What about the Skin uptake (LNCaP tumor; Non-blocked (n=11)) of the same compound?
**A.** 1.07 %IA/g

**Q.** What about the Spleen uptake (LNCaP tumor; Non-blocked (n=11)) of the same compound?
**A.** 10.10 %IA/g

**Q.** What about the Stomach uptake (LNCaP tumor; Non-blocked (n=11)) of the same compound?
**A.** 9.17 %IA/g

**Q.** And the Tail uptake (LNCaP tumor; Non-blocked (n=11))?
**A.** 2.37 %IA/g

**Q.** What about the Testis uptake (LNCaP tumor; Non-blocked (n=11)) of the same compound?
**A.** 1.96 %IA/g

**Q.** And the Thyroid uptake (LNCaP tumor; Non-blocked (n=11))?
**A.** 2.57 %IA/g

**Q.** And the liver uptake (LNCaP tumor; Non-blocked (n=11))?
**A.** 28.54 %IA/g

**Q.** What about the “64Cu metabolite observed in the liver” value ([1]; balb/c mice, 2 h p.i., radio-TLC) of the same compound?
**A.** 25%

**Q.** And the “tracer form found in urine” value ([1]; balb/c mice, urine 1 h p.i., UPLC)?
**A.** intact ^64Cu tracer was found in urine; also recorded: no metabolite was observed in urine

**Q.** What about the “64Cu and 64Cu-DOTHA2-PSMA Bound to Plasma Proteins” value ([1]; in mice, 1 h p.i.) of the same compound?
**A.** 48%

**Q.** What about the “64Cu dissociation in combined supernatant and plasma proteins” value ([1]; in mice, 1 h p.i.) of the same compound?
**A.** 4.58%

**Q.** What about the “64Cu released from Proteins” value [1, 3] of the same compound?
**A.** 1.98%

**Q.** What about the “64Cu-DOTHA2-PSMA Released from Proteins” value [1, 3] of the same compound?
**A.** 31%

**Q.** And the “64Cu in the Supernatant” value ([1]; in mice, blood 1 h p.i., % of total plasma signal)?
**A.** 2.60%

**Q.** And the “free 64Cu in blood (peak in plasma supernatant, radio-TLC)” value ([1]; mice, 1 h p.i.)?
**A.** 5%

**Q.** What about the “free 64Cu in the liver” value ([1]; mice, 2 h p.i., radio-TLC) of the same compound?
**A.** no free ^64Cu was observed; also recorded: free ^64Cu was not seen in liver
